{
  "source": "patent US10045961B2",
  "about": "“Use of sting agonists to treat chronic hepatitis B virus infection” (DREXEL UNIVERSITY, priority 2013, dated 2018)",
  "molecules": {"B1": {"name": "IL-6: Recombinant murine IL-6 from PBL InterferonSource (protein, UniProt P08505 25-211, looked up)", "Interleukin-6": "FPTSQVRRGDFTEDTTPNRPVYTTSQVGGLITHVLWEIVEMRKELCNGNSDCMNNDDALAENNLKLPEIQRNDGCYQTGYNQEICLLKISSGLLEYHSYLEYMKNNLKDNKKDKARVLQRDTETLIHIFNQEVKDLHKIVLPTPISNALLTDKLESQKEWLRTKTIQFILKSLEEFLKVTLRSTRQT"}},
  "key": {"[1]": {"test_system": "HBV DNA replication in AML12HBV10 cells", "test": "Direct treatment of AML12HBV10 cells, cytoplasmic HBV core DNA by Southern blot", "conditions": "for HBV DNA replication, direct treatment: AML12HBV10 cells treated directly for 2 days, cytoplasmic HBV core DNA; for HBV DNA replication, cytokine treatment: AML12HBV10 cells treated for 4 days", "quoted_text": "AML12HBV10, an immortalized murine hepatocyte (AML12)-derived cell line supporting high level of HBV replication in a tetracycline (tet)-inducible manner, was maintained as described in Xu C, et al. Interferons accelerate decay of replication-competent nucleocapsids of hepatitis B virus.\nHBV core DNA extraction from AML12HBV10 cells as well as analyses by Southern blot hybridization and real-time PCR assays were as described previously in Xu C, et al. Interferons accelerate decay of replication-competent nucleocapsids of hepatitis B virus. […] Total cellular RNA was extracted using TRIzol reagent (Invitrogen). HBV RNA was analyzed by Northern blot hybridization with an α-^32P-UTP-labeled full-length minus-stranded RNA probe. HBV capsid and capsid associated viral DNA was analyzed by a native agarose gel electrophoresis followed by transfer to a nitrocellulose membrane. HBV capsids were detected by probing the membrane with an antibody against HBV core protein followed by visualizing with LI-COR Odyssey system. Capsid-associated DNA was detected by hybridization with radioactively labeled HBV riboprobe.\n(§4) The assay system was first validated with known TLR agonists. […] Twenty-four hours later, the cells were treated with the indicated concentrations of TLR agonists (direct treatment) (FIG. 1B). […] Cytoplasmic HBV core DNA was analyzed by Southern blot hybridization two days post treatment.\n(§5) AMLHBV10 cells, grown in Dulbecco's Modification of Eagle's Medium (DMEM)/F12 medium with 1 μg/ml of tetracycline were seeded in 12-well plate at density of 1×10^5 cell/well for 1 day in absence of tetracycline to release HBV replication. […] HBV core DNA was extracted from AML12HBV10 cells 2 days post treatment, and detected by Southern blot assay.\nCytoplasmic HBV core DNA was analyzed by Southern blot hybridization. NT controls were as described in FIG. 1B (FIG. 3B). […] AML12HBV10 cells treated with the indicated concentrations of mouse alpha IFN (mIFN-α) for 2 days served as positive controls. Cytoplasmic HBV core DNA was analyzed by Southern blot hybridization (FIG. 3D)."}, "[2]": {"test_system": "HBV DNA replication in AML12HBV10 cells", "test": "Indirect treatment: conditioned media from treated RAW264.7 macrophages applied to AML12HBV10 cells, HBV core DNA by Southern blot", "conditions": "AML12HBV10 cells treated 2 days with 50% conditioned media from RAW264.7 cells treated 12 h", "procedure": "as §4, §5\nIntracellular HBV RNA was determined by Northern blot (ribosomal RNA served as loading control). HBV core protein was determined by Western blot assay using antibody against carboxyl terminal 14 amino acid of HBV core protein (β-actin served as loading control). HBV nucleocapsids were examined by a particle gel assay to detect both the intact nucleocapsids and capsid-associated HBV DNA. Encapsidated HBV (core DNA) replication intermediates (RC, DSL and SS) were determined by Southern blot assay.\nUsing the assay system described above, 75 flavonoids in MicroSource compound collection (MicroSource Discovery Systems, Inc.) were tested again. […] Cytoplasmic HBV core DNA was analyzed by Southern blot hybridization. […] AML12HBV10 cells treated with the indicated concentrations of mouse alpha IFN (mIFN-α) for 2 days served as positive controls. Cytoplasmic HBV core DNA was analyzed by Southern blot hybridization (FIG. 3D)."}, "TBK1": {"test_system": "TBK1", "test": "Western blot of TBK1 phosphorylation in RAW264.7 cells", "assay_type": "cell-based, mouse", "conditions": "125 μM DMXAA", "source_text": "(§1) Total cellular proteins were fractioned by SDS-PAGE and transferred onto PVDF membranes. Total and phosphorylated STING, TBK1, p38, JNK and Erk as well as IkB-α were detected by Western blot assays with their specific antibodies. β-actin served as a loading control."}, "IκBα": {"test_system": "IκBα", "test": "Western blot of IκBα degradation in RAW264.7 cells", "assay_type": "cell-based, mouse", "conditions": "125 μM DMXAA", "source_text": "as §1"}, "MAPK pathways": {"test_system": "MAPK pathways", "test": "Western blot of MAPK pathway activation (phosphorylated p38α, JNK, ERK) in RAW264.7 cells", "assay_type": "cell-based, mouse", "source_text": "as §1"}, "HBV capsids": {"test_system": "HBV capsids", "test": "HBV core protein, capsids and capsid-associated DNA in AML12HBV10 cells after indirect treatment", "assay_type": "cell-based, hepatitis B virus", "conditions": "2 days; for amount of HBV capsid protein: Western blot", "method": "HBV core DNA extraction from AML12HBV10 cells as well as analyses by Southern blot hybridization and real-time PCR assays were as described previously in Xu C, et al. Interferons accelerate decay of replication-competent nucleocapsids of hepatitis B virus. J Virol 2010; 84:9332-40, and Campagna M R, et al. Sulfamoylbenzamide Derivatives Inhibit the Assembly of Hepatitis B Virus Nucleocapsids. J Virol 2013. Total cellular RNA was extracted using TRIzol reagent (Invitrogen). HBV RNA was analyzed by Northern blot hybridization with an α-^32P-UTP-labeled full-length minus-stranded RNA probe. HBV capsid and capsid associated viral DNA was analyzed by a native agarose gel electrophoresis followed by transfer to a nitrocellulose membrane. HBV capsids were detected by probing the membrane with an antibody against HBV core protein followed by visualizing with LI-COR Odyssey system. Capsid-associated DNA was detected by hybridization with radioactively labeled HBV riboprobe.\nIn order to map the HBV replication step(s) being inhibited by DMXAA-induced antiviral response in macrophages, AML12HBV10 cells were treated with conditioned media harvested from TLR agonist- or DMXAA-treated RAW264.7 cells. […]. The AML12HBV10 cells were harvested 2 days after treatment for the following analysis: (FIG. 4A) Intracellular HBV RNA was determined by Northern blot (pgRNA, pre-genomic RNA, envRNAs, viral mRNAs specifying envelope proteins. 18S ribosomal RNA (rRNA) served as loading controls); (FIG. 4B) HBV core protein was determined by Western blot assay using total cell lysate (β-actin served as a loading control); the amounts of HBV capsids (FIG. 4C) and capsid-associated HBV DNA (FIG. 4D) were determined by a native agarose gel assay; and (FIG. 4E) Cytoplasmic HBV core DNA was determined by Southern blot hybridization."}, "[3]": {"test_system": "HBV DNA in AML12HBV10 cells", "test": "Blockade of type I IFN receptor (IFNAR1 antibody) in AML12HBV10 cells, HBV DNA by real-time PCR", "assay_type": "cell-based, hepatitis B virus", "conditions": "AML12HBV10 cells pre-incubated with 10 μg/ml IFNAR1 antibody; mIFN-α directly or conditioned media from DMXAA-treated RAW264.7 cells", "method": "AML12HBV10 cells cultured in absence of tetracycline for 1 day, were incubated either with or without 10 μg/ml of a monoclonal antibody against type I interferon receptor IFNAR1 (Ab INFAR) at 37° C. for 1 h, followed by treatment for 2 days with the indicated concentrations of mIFN-α (FIG. 7A) or 50% of conditioned media harvested from RAW264.7 cells (treated with the indicated concentrations of DMXAA for 12 h) (FIG. 7B). Cytolplasmic HBV DNA were quantified by a real-time PCR assay and data (mean±standard deviation, N=4) were presented as percentage of mock-treated controls (NT). AML12HBV10 cells cultured in the absence of tetracycline were treated with the indicated concentrations of IL-1, IL-6 or TNF-α for 4 days (FIG. 7C). Cytoplasmic HBV core DNA was analyzed by Southern blot hybridization."}, "[4]": {"test_system": "HBV DNA in AML12HBV10 cells", "test": "Conditioned media from shSTING RAW264.7 cells on AML12HBV10 cells, HBV core DNA by real time PCR", "assay_type": "cell-based, hepatitis B virus", "conditions": "2 days"}, "HBV": {"test_system": "HBV", "test": "HBV DNA hydrodynamic mouse model, intrahepatic HBV core DNA", "assay_type": "in vivo, NOD/SCID mice", "conditions": "single 25 mg/kg intraperitoneal dose, 24 h after treatment", "method": "(§2) Ten-week-old female NOD/SCID mice were purchased from Vital River Laboratory Animal Technology Co. Ltd. All experiments were conducted with Institutional Animal Care and Use Committee approval. To establish HBV hydrodynamic model, 13.5 μg of plasmid pTmcsHBV1.3 expressing 1.3mer HBV genome and 4.5 μg of pCMV-SB expressing the Sleeping Beauty transposase were injected through tail vein, according to procedures previously described. To test the efficacy of DMXAA in vivo, 7 days post injection, mice were treated with either DMXAA (in PBS with 7.5% sodium Bicarbonate) at 25 mg/kg or vehicle, via intraperitoneal injection. Mice were sacrificed 24 h after treatment. Intrahepatic HBV core DNA was extracted and quantified by using a real-time PCR assay. Intrahepatic total RNA was extracted and the interferon stimulated genes (ISGs) OAS1b and viperin mRNAs were determined by real-time RT-PCR assay. Weight of individual mouse was monitored before and 24 h after the treatment.\n(§3) To further validate the antiviral effects of DMXAA in vivo, NOD/SCID mice were hydrodynamically injected with HBV 1.3mer plasmid to establish HBV replication in hepatocytes. […] (FIG. 9A) Twenty-four hours post treatment, HBV core DNA was extracted from livers and analyzed by a real-time PCR assay. […] (FIGS. 9B and 9C) Total RNA was extracted from livers and mRNA levels of OAS1b and viperin were analyzed by real-time RT-PCR assay. […]"}, "[5]": {"test_system": "interferon stimulated genes (ISGs) OAS1b and viperin", "test": "HBV hydrodynamic mouse model, intrahepatic ISG mRNA (OAS1b, viperin)", "assay_type": "in vivo, NOD/SCID mice", "conditions": "single 25 mg/kg intraperitoneal dose, 24 h", "method": "as §2, §3"}, "[6]": {"test": "HBV hydrodynamic mouse model, body weight", "assay_type": "in vivo, NOD/SCID mice", "conditions": "single 25 mg/kg intraperitoneal dose, 24 h; data not shown", "method": "as §2"}, "IFN-β mRNA": {"test_system": "IFN-β mRNA", "test": "qRT-PCR of IFN-β mRNA in RAW264.7 cells", "procedure": "(§6) For cytokine gene expression analysis, total RNA was extracted using TRIzol reagent. cDNAs were synthesized using SuperScript III (Invitrogen). Quantitative real-time PCR analysis was performed using a LightCycler 480 II (Roche).\n(§7) The amounts of mRNA specifying the specific cytokines and chemokines were quantified by real-time RT-PCR assays. Data (mean±standard deviation, N=3) were expressed as fold induction of gene expression relative to untreated controls."}, "[7]": {"test_system": "proinflammatory cytokines (IL6, IL1, IL10, TNF-α, IL12) and chemokine CXCL10", "test": "qRT-PCR of proinflammatory cytokine and chemokine mRNA in RAW264.7 cells", "procedure": "as §6, §7"}, "[8]": {"test_system": "HBV replication in human hepatoma cells (HepDES19)", "test": "Conditioned medium from DMXAA-treated THP-1hSTINGS162 cells on DES19 human hepatoma cells, HBV core DNA by real time PCR", "conditions": "media from THP1-hSTING/S162 cells treated 12 hrs, 6 days", "procedure": "Additionally, THP-1hSTINGS162 cells were treated with DMXAA for 12 hrs, conditioned medium with indicated dilution were then transferred to DES19, a human hepatoma cell line harboring HBV replication. HBV core DNA was extracted 6 days post treatment, and quantified by real time PCR assay. HBV DNA expression levels (means±standard deviations, N=3) were expressed as percentage relative to mock treated control. DES19 cells treated with IFN-α served as positive control (FIG. 10B)."}},
  "note": "“Also recorded” adds a separate entry of the source.",
  "data": [
    {"molecule": "O=c1cc(-c2ccccc2O)oc2cc(O)ccc12", "note": "[7, 2′-dihydroxyflavone]", "values": [
      {"measurement": "HBV DNA replication, direct treatment", "setting": "[1]", "result": "not direct"},
      {"measurement": "HBV DNA replication, indirect treatment", "setting": "[2]", "result": "indirect, but not direct, antiviral activity against HBV"},
      {"measurement": "HBV DNA replication, indirect treatment", "setting": "[2]; listed as 7, 2′ dihydroxyflavone", "result": "induces antiviral activity against HBV"}
    ]},
    {"molecule": "Cc1ccc2c(=O)c3cccc(CC(=O)O)c3oc2c1C", "note": "[DMXAA, 5,6-dimethylxanthenone-4-acetic acid]", "values": [
      {"measurement": "phosphorylation of TBK1", "setting": "TBK1", "result": "efficiently induced phosphorylation of TBK1"},
      {"measurement": "degradation of IκBα", "setting": "IκBα", "result": "induced degradation of IκBα"},
      {"measurement": "time at which activation of MAPK pathways (phosphorylated p38α, JNK, ERK) was evident", "setting": "MAPK pathways", "result": 90, "unit": "min"},
      {"measurement": "amounts of HBV DNA replication intermediates", "setting": "HBV capsids", "result": "decreased"},
      {"measurement": "amount of HBV capsid protein", "setting": "HBV capsids", "result": "reduced the amounts of HBV capsid protein"},
      {"measurement": "antiviral response after blockade of type I IFN receptor", "setting": "[3]", "result": "significantly attenuated"},
      {"measurement": "antiviral activity against HBV with STING knockdown cells", "setting": "[4]", "result": "significantly attenuated"},
      {"measurement": "reduction of intrahepatic HBV core DNA versus vehicle", "setting": "HBV", "result": 1.3, "unit": "log"},
      {"measurement": "OAS1b expression in liver", "setting": "[5]", "result": "significantly induced"},
      {"measurement": "viperin expression in liver", "setting": "[5]", "result": "significantly induced"},
      {"measurement": "reduction of average body weight", "setting": "[6]", "result": "approximately 8%"},
      {"measurement": "time of peak of IFN-β response", "setting": "IFN-β mRNA", "result": 2, "unit": "h"},
      {"measurement": "IFN-β mRNA expression relative to TLR1/2, TLR3 or TLR7 agonists", "setting": "IFN-β mRNA; 125 μM, 2 h post treatment", "result": "approximately 100 fold"},
      {"measurement": "time of peak of inflammatory cytokine response (IL-1 and IL-10)", "setting": "[7]", "result": "≥ 6", "unit": "h"},
      {"measurement": "IFN and inflammatory cytokine response profile", "setting": "[7]; qRT-PCR, DMXAA compared with TLR agonists", "result": "predominant IFN response, but less vigorous inflammatory cytokine response"},
      {"measurement": "HBV DNA replication, direct treatment", "setting": "[1]", "result": "does not inhibit HBV DNA replication"},
      {"measurement": "HBV replication in human hepatoma cells, conditioned media", "setting": "[8]", "result": "efficiently suppressed HBV replication"},
      {"measurement": "HBV DNA replication, indirect treatment", "setting": "[2]", "result": "strong indirect anti-HBV activity; also recorded: inhibits HBV DNA replication in the mouse hepatocytes in a dose-dependent manner"}
    ]},
    {"molecule": "CCNCc1nc2c(N)nc3ccccc3c2n1CC(C)(C)O", "note": "[gardiquimod]", "values": [
      {"measurement": "HBV DNA replication, direct treatment", "setting": "[1]", "result": "did not apparently inhibit HBV DNA replication"},
      {"measurement": "HBV DNA replication, indirect treatment", "setting": "[2]", "result": "potently inhibited HBV DNA replication"}
    ]},
    {"molecule": "CCN(CC)CCOc1ccc2c(c1)C(=O)c1cc(OCCN(CC)CC)ccc1-2", "note": "[tilorine, 2,7-Bis[2-(diethylamino)ethoxy]-9-fluorenone]", "values": [
      {"measurement": "HBV DNA replication, direct treatment", "setting": "[1]", "result": "neither directly nor indirectly inhibited HBV replication"},
      {"measurement": "HBV DNA replication, indirect treatment", "setting": "[2]", "result": "neither directly nor indirectly inhibited HBV replication"}
    ]},
    {"molecule": "IFN-α", "values": [
      {"measurement": "antiviral response after blockade of type I IFN receptor", "setting": "[3]", "result": "significantly reduced"}
    ]},
    {"molecule": "Pam3CSK4", "values": [
      {"measurement": "amount of HBV capsid protein", "setting": "HBV capsids", "result": "to lesser extents"},
      {"measurement": "HBV DNA replication, direct treatment", "setting": "[1]", "result": "did not apparently inhibit HBV DNA replication"},
      {"measurement": "HBV DNA replication, indirect treatment", "setting": "[2]", "result": "potently inhibited HBV DNA replication"}
    ]},
    {"molecule": "TNF-α", "values": [
      {"measurement": "HBV DNA replication, cytokine treatment", "setting": "[1]", "result": "inhibited HBV DNA replication"}
    ]},
    {"molecule": "poly I:C", "values": [
      {"measurement": "amount of HBV capsid protein", "setting": "HBV capsids", "result": "to lesser extents"},
      {"measurement": "HBV DNA replication, direct treatment", "setting": "[1]", "result": "did not apparently inhibit HBV DNA replication"},
      {"measurement": "HBV DNA replication, indirect treatment", "setting": "[2]", "result": "potently inhibited HBV DNA replication"}
    ]},
    {"molecule": "B1", "values": [
      {"measurement": "HBV DNA replication, cytokine treatment", "setting": "[1]", "result": "only TNF-α inhibited HBV DNA replication"}
    ]}
  ]
}
